Experimental data reported in a melting point compilation (Tetko et al.; mined from patent text by program, amines drawn as free bases though some values may be those of a salt).

Row | Structure (SMILES) | melting point [°C]
1 | CCCCCCCCCCCCCCCCCNC(=O)OCC(CO)Oc1cc(C)on1 (stereo not drawn) | 77 to 79
2 | CC1=C(CN2CC(C(=O)O)C2)CCc2cc(OCc3ccc(C(F)(F)F)cc3C(F)(F)F)ccc21 | 155 to 165
3 | N#Cc1ccc(N2C(=O)NC(=Cc3ccccc3O)C2=O)c2ccccc12 | 146 to 149
4 | Nc1cc(=O)[nH]c2c1cnn2-c1ccccc1 | 223 to 225
5 | Fc1ccccc1C1=NCc2ccccc2-c2ccc(Br)cc21 | 104 to 105
6 | Clc1ccc(-c2nc(CCCCCc3nnn[nH]3)oc2-c2ccc(Cl)cc2)cc1 | 100
7 | NCCc1ccc(N2CCN(c3ccc(CC(=O)O)cc3)C2=O)cc1 | > 250
8 | COC(=O)C(=CNC1CC1)C(=O)c1cc(F)c(Cl)cc1Cl | 150 to 151
9 | CCOC(=O)COc1cc(S(C)(=O)=O)ccc1C(=O)NCc1ccc(Br)cc1F | 140 to 143
10 | Nc1cccc(NC(=O)C(=O)N2CCC(Cc3ccccc3)CC2)c1 | 103 to 105
11 | C=CCNc1ccnc2cn[nH]c12 | 230 to 232
12 | O=S(=O)(Nc1ccc(-c2nn(S(=O)(=O)c3ccccc3)c3c2Cc2ccccc2-3)cc1)c1ccccc1 | 251 to 252
13 | Cc1cc2c(cc1C)CC(C)NC(=O)C2 (stereo not drawn) | 226 to 227
14 | COc1cc(C(=O)c2nc(Br)c3ccccn23)ccc1[N+](=O)[O-] | 189
15 | O=C(OC(c1ccc(Cl)c2nc3n(c12)CCCN3c1ccc(Cl)cc1Cl)C1CC1)C1CC1 (stereo not drawn) | 168 to 170
16 | O=C(N1CCc2ccc(S(=O)(=O)F)cc2C1)C(F)(F)F | 99 to 103
17 | COCCNc1ccnc2c(NC(=O)c3c(Cl)cccc3Cl)cccc12 | 166
18 | O=C(SCCCC(=O)N1CCC[C@H]1C(=O)O)c1ccccc1 | 159 to 161
19 | CN(C)C(=O)c1c2ccc(Cl)cc2c(-c2ccccc2)n1C | 86 to 88
20 | CC(=O)c1ccc2c(c1)Sc1ccccc1C=C2 | 82 to 84
21 | Oc1ccc(CCCCn2cncn2)cc1 | 135 to 136
22 | FCCn1ncnc1COc1nn2c(-c3ccccc3F)nncc2c1-c1ccccc1F | 172 to 173
23 | CSc1nc(Cl)c2ncccc2n1 | 120 to 121
24 | CCCCN1CC(C(=O)OC)N(S(=O)(=O)c2ccc(-c3ccc(Br)cc3)cc2)CC1=O (stereo not drawn) | 113 to 115
25 | CCOC(=O)CNc1cc(Cl)nc(NCc2ccc(Cl)cc2)n1 | 168 to 170

Row | Structure (SMILES) | melting point [°C]
26 | CC(Cl)C(=O)Nc1ccccc1C(=O)CC(=O)Nc1nccs1 (stereo not drawn) | 204
27 | COCC(=O)NS(=O)(=O)c1cccc(-c2cccc(-c3cc(-c4ccc(C(F)(F)F)cc4)cc(C)n3)n2)c1 | 188
28 | CNCCON=C1c2ccccc2C2CC2c2ccccc21 (stereo not drawn) | 100 to 101
29 | CCN=C(SC)N(C)Cc1ccc(Cl)nc1 | 132 to 133
30 | CCn1c(C)c(C2(c3c(-c4ccccc4)[nH]c4ccccc34)OC(=O)C(Cl)=C2Cl)c2ccccc21 (stereo not drawn) | 225
31 | CCOC(=O)c1ncn2c1C(C)N=C(c1ccccc1)c1cc(Br)ccc1-2 (stereo not drawn) | 164 to 165
32 | CCCc1c(OCCCOCCCOc2ccc3ccc(OCC(=O)O)cc3c2C(C)=O)ccc(C(C)=O)c1O | 101 to 104
33 | CN(CC1OCCO1)c1nccc(Oc2ccc(NC(=O)c3cc(F)cc(N4CCOCC4)c3)c3ccccc23)n1 | 111 to 112
34 | Oc1ccc2ccc(C(O)C(F)(F)F)cc2c1 (stereo not drawn) | 174 to 175
35 | Cc1oc(-c2ccccc2)nc1COc1ccc(OCc2nc(-c3ccccc3)oc2CO)cc1 | 157 to 158
36 | CCOC(=O)/C=C/c1ccc(-c2ccc(O)c(C34CC5CC(CC(C5)C3)C4)c2)c(Cl)c1 | 216 to 218
37 | COC(=O)C12CCc3cc(Cl)ccc3C1=NN(C(=O)Nc1ccc(C(F)(F)F)cc1)C2 (stereo not drawn) | 234 to 236
38 | O=S(=O)(NN=C(Cl)c1cc(Cl)ccc1Cl)c1ccccc1 | 133 to 135
39 | CCOC(=O)c1cnc2ccc(OCC)nc2c1Cl | 61 to 64
40 | C[C@H]1CC[C@H]2C(C)(C)[C@@H](O)CC[C@]23Oc2c(c(OCc4ccccc4)cc4c2CN(C(=O)OC(C)(C)C)C4=O)C[C@]13C | 138 to 140
41 | CSC1C(=O)Nc2ccc(C(F)(F)F)cc21 (stereo not drawn) | 136 to 138
42 | Cc1noc(-c2ncn3c2[C@@H]2CCCN2C(=O)c2cc(F)ccc2-3)n1 | 248 to 249
43 | C=CCc1c(OC(C)=O)cc(C)c2c(C)cc(=O)oc12 | 166
44 | CC(=O)N(C(=O)c1ccccc1O)C(C)C(=O)O (racemic) | 118 to 120
45 | Cc1cncc2c1C(=N)N(Cc1ccccc1)S2(=O)=O | 37 to 39
46 | FCc1ccc(-c2cn([C@H]3CN4CCC3CC4)nn2)cc1 | 138
47 | CC(=O)NC1=C(N)C(=O)c2cc(C)c(C)cc2C1=O | 212 to 216
48 | CCOC(=O)c1cn(CC)c2cc(C(=O)C=CN(C)C)c(F)cc2c1=O | 176 to 179
49 | Nc1ccc(CNc2ccccn2)cc1O | 136 to 138
50 | CCSc1cc(C)nc(SCC)c1NC(=O)CCCCCCSc1nc2c(C)c(Cl)cc(C(C)C)c2o1 | 117 to 120

Row | Structure (SMILES) | melting point [°C]
51 | NS(=O)(=O)c1ccc(NC(=O)CNc2ccccc2)cc1C(F)(F)F | 172
52 | CCC(=C(c1ccccc1)c1ccc(OCC(O)CO)cc1)C1CCCC1 (stereo not drawn) | 89 to 91
53 | COc1ccc(-c2cnn(-c3cccc(C)n3)c(=O)c2)cc1 | 167 to 168
54 | CNC(=O)C1CN(CC(=O)Nc2c(Cl)cc(C(C)=O)cc2Cl)CCN1CCCCN(c1ccc(F)cc1)c1ccc(F)cc1 (stereo not drawn) | 85
55 | COc1ccc(Cc2nc3c(N)nc4ccccc4c3n2CCOc2ccccc2)cc1 | 201 to 204
56 | CCCCOC(=O)CCCCSc1cc(C)nc(N)n1 | 45 to 47
57 | CC(C)c1cccc(C(C)C)c1NC(=O)NCCN1CCN(CCSc2nc3ncccc3o2)CC1 | 175 to 176
58 | Nc1nc2ccccc2c2c1ncn2CC1(O)CCCCC1 | > 250
59 | O=C(NC(=O)c1ccc([N+](=O)[O-])cc1Cl)Nc1ccc(Cl)c(Cl)c1 | 280
60 | Clc1ccc2c(c1)C(c1ccccc1)=NCc1nnc(CCOCc3ccccc3)n1-2 | 115 to 117
61 | Cc1oc(-c2ccccc2)nc1COc1ccc(COc2ccc(OCc3ccccc3)cc2CC(=O)O)cc1 | 140 to 141
62 | Cc1cc(C)n(-c2nc(Nc3ccccn3)c3ccccc3n2)n1 | 126 to 127
63 | CC1(C)CCOc2cc(O)ccc21 | 88 to 88.5
64 | O=C(O)COc1ccc(C(=O)Nc2ccccc2Sc2ccccc2-c2nnn[nH]2)cc1 | 252 to 253
65 | COc1cc(OC)c(C2CCN(C)CC2O)c(O)c1C(C)=O (stereo not drawn) | 216
66 | O=S(=O)(c1ccc(Cl)cc1)c1c(-c2ccc(Cl)cc2)[nH]c(C(F)(F)F)c1Br | > 230
67 | CS(=O)(=O)OCCOc1ccc(CN2C(=O)C(=O)c3cc(S(=O)(=O)N4CCCC4COc4ccccc4)ccc32)cc1 (stereo not drawn) | 152 to 153
68 | O=c1[nH]c2c(cc1-c1nc(-c3ccccc3)no1)CN(Cc1ccccc1)CC2 | 231 to 233
69 | O=Cc1ccc(-c2ccc(C=O)s2)s1 | 213 to 214
70 | CC1(C)CC(=O)c2c(NCc3ccccn3)sc(-c3cc[nH]n3)c2C1 | 210 to 213
71 | Cc1ccc2nc(-c3ccc(C#N)cc3)c(CNC(=O)CC(C)C)n2c1 | 231 to 233
72 | CCn1nc(C)c(N)c1C | 69 to 70
73 | CCOC(=O)c1c(Cl)ccc(C(=O)O)c1Cl | 168
74 | COc1cccc(-c2cc(Cl)c3cc(OC)ccc3n2)c1 | 106 to 107
75 | Cc1cc(C)n(-c2ncc(Br)c(Nc3ccc(Cl)cc3)n2)n1 | 144 to 154

Row | Structure (SMILES) | melting point [°C]
76 | CC(=O)N1N=C(c2ccc([N+](=O)[O-])c(C)c2)c2cc3c(cc2C=C1C)OCO3 | 115 to 116
77 | COc1cccc(C(=O)Cl)c1OC(C)=O | 51 to 54
78 | COC(=O)CCC#Cc1cc(Cl)ccc1NS(=O)(=O)c1cccc(C)c1 | 69
79 | CC(C)c1sc2ncnc(N)c2c1-c1ccc(N)cc1 | 187 to 189
80 | COc1cc2c(O)nc(-c3ccc(Cl)cc3)nc2c(OC)c1OC | 289
81 | COc1ccc2c(n1)C1(CO2)C(=O)N(Cc2ccc(C(F)(F)F)o2)c2cccc(Cl)c21 (stereo not drawn) | 106 to 108
82 | CCOC(=O)c1c(C)nn(C)c1SCc1ccccc1 | 55 to 56
83 | COc1ccc(C2=NN(c3ccc(C(C)(C)C)cc3)C(=O)[C@H]3CC=CC[C@@H]23)cc1OC (relative stereo) | 197 to 199
84 | CCCCNC(=O)NS(=O)(=O)Cc1ccccc1-c1nnc(SC)o1 | 156 to 159
85 | c1ccc(Cc2nnn[nH]2)c(COc2ccc3oc(-c4nc5c(s4)NCCCC5)cc3c2)c1 | 110 to 118
86 | O=C1N(c2cc(Cl)cc(Cl)c2)C(=O)C2(Cc3ccc(-c4ccc([N+](=O)[O-])cc4)cc3)CCCN12 (stereo not drawn) | 72 to 73
87 | NCC1CCc2c(O)cccc2C1 (stereo not drawn) | 183 to 192
88 | CC(C)c1cccc(C(C)C)c1-n1nnn(C(C)C)c1=S | 109 to 111
89 | COc1cc2c3c([nH]c2c(Cl)c1Cl)C(=O)NCC3 | 263 to 264
90 | COc1cc2c(cc1OC)C(=CN1CCN(C(=O)C3CCCCO3)CC1)C(=O)N2 (stereo not drawn) | 208 to 210
91 | CCCN1Cc2ccccc2C(=O)c2cc(CC(=O)O)ccc21 | 126
92 | Cc1c(C(=O)NCc2ccc3c(Br)c(O)ccc3c2)oc2ccccc12 | 194 to 197
93 | COSN=C1C(=O)N(C)C(=O)N1c1ccccc1F | 124 to 127
94 | CC(=O)c1c(C)[nH]c(-c2ccccc2C)c1NCc1ccc(Cl)cc1 | 167 to 170
95 | C[C@H](N)C(=O)N(C(=O)OCc1ccccc1)c1ccccc1 | 161 to 163
96 | O=C1NC(=O)C(Cc2ccc(C(=O)CCc3ccccc3)cc2)S1 (stereo not drawn) | 119 to 121
97 | Cc1cc2c(cc1S(=O)(=O)c1ccc(Cl)cc1)OC(C(=O)O)O2 (stereo not drawn) | 169 to 171
98 | O=C(Nc1[nH]nc(-c2c(Cl)cc(C(F)(F)F)c(F)c2Cl)c1[N+](=O)[O-])C(Cl)Cl | 115 to 117
